These results are taken from article PMC4336630 (Molecular cell, 2015).

As usually defined, the IC50 is the midpoint of a concentration-inhibition curve. The Ki is a measure of affinity in units of concentration, obtained from inhibition or displacement. In general, Km refers to the substrate concentration at which the rate is half of its maximum. For orientation: kcat means the number of substrate molecules converted per active site and unit of time at saturation.

“Also recorded” adds a separate entry of the source.

Data set [1] concerns the target T1, S. mutans GMK (Streptococcus mutans serotype c, UniProt Q8DVK6). Nature of the data set: biochemical.
The target in data set [2] is T2, D. radiodurans GMK (Deinococcus radiodurans, UniProt Q9RS38).
The target of data set [3] is T. thermophilus IMPDH. The settings on record: cited from earlier work.
Data set [4] deals with T3, S. aureus GMK (Staphylococcus aureus, UniProt P99176). The data set can be described thus: biochemical.
Data set [5] concerns the target T4, S. meliloti GMK (Sinorhizobium meliloti, UniProt Q92QZ2). The data set can be described thus: biochemical.
Data set [6] concerns the target T5, B. subtilis GMK (Bacillus subtilis, UniProt O34328). Nature of the data set: biochemical.
Data set [7] concerns the target T6, S. coelicolor GMK (Streptomyces coelicolor, UniProt Q9KXS0).
For data set [8], the target named is T7, B. anthracis GMK (Bacillus anthracis, UniProt Q81WG7).
Data set [9] has as its target T8, T. thermophilus GMK (Thermus thermophilus, UniProt Q5SI18). The data set can be described thus: biochemical.
In data set [10] the test system is Yersinia enterocolitica GMK. Format: biochemical.
Data set [11] has as its target A. tumefaciens GMK (Agrobacterium tumefaciens, UniProt Q8UGD7). Type of data set: biochemical.
Data set [12] concerns the target M. tuberculosis GMK (Mycobacterium tuberculosis, UniProt P9WKE9). Type of data set: biochemical.
Data set [13] concerns the target T5, B. subtilis GMK. Type of data set: binding.
Data set [14] deals with T4, S. meliloti GMK.
Data set [15] addresses T9, L. monocytogenes GMK (Listeria monocytogenes serovar 1/2a, UniProt Q8Y672).
The test system of data set [16] is Chimeric S. aureus GMKs with E. coli lid domains. Format: biochemical.
Data set [17] concerns Neisseria meningitidis GMK. Type of data set: biochemical.
Data set [18] concerns Klebsiella pneumoniae GMK. Type of data set: biochemical.
Data set [19] has as its target T10, E. coli GMK (Escherichia coli, UniProt P60546). Type of data set: biochemical.
Data set [20] addresses T7, B. anthracis GMK. The data set can be described thus: biochemical.
The subject of data set [21] is GMK of Rhodobacter sphaeroides. Type of data set: biochemical.
Data set [22] deals with E. faecalis GMK-1 (Enterococcus faecalis, UniProt Q82ZD5). Type of data set: biochemical.
Data set [23] has as its target T5, B. subtilis GMK.
For data set [24], the target named is T11, E. faecalis GMK-2 (Enterococcus faecalis, UniProt Q831B6). The settings on record: cited from earlier work.
Data set [25] addresses Coxiella burnetii GMK (Coxiella burnetii, UniProt Q83EL7). Format: biochemical.
Data set [26] addresses B. subtilis GMK Y77F (Bacillus subtilis, UniProt O34328, Y77F). Type of data set: biochemical.
The subject of data set [27] is chimeric E. coli GMKs with S. aureus lid domains. Type of data set: biochemical.
Data set [28] has as its target T1, S. mutans GMK.
For data set [29], the target named is T9, L. monocytogenes GMK. The data set can be described thus: biochemical.
The test system of data set [30] is Pseudomonas syringae GMK. Format: biochemical.
Data set [31] deals with T11, E. faecalis GMK-2. Format: biochemical.
Data set [32] deals with T3, S. aureus GMK.
Data set [33] concerns the target T12, C. gilvus GMK (Cellulomonas gilvus, UniProt F8A6C8). Nature of the data set: biochemical.
For data set [34], the target named is T8, T. thermophilus GMK.
The target in data set [35] is T10, E. coli GMK. Format: binding.
Data set [36] concerns the target T12, C. gilvus GMK.
For data set [37], the target named is T2, D. radiodurans GMK. The data set can be described thus: biochemical.
Data set [38] concerns the target T6, S. coelicolor GMK. The data set can be described thus: biochemical.
For data set [39], the system named is Nc1nc2c(ncn2[C@@H]2O[C@H](COP(=O)(O)O)[C@@H](O)[C@H]2O)c(=O)[nH]1. Nature of the data set: purified protein, by the assay type. The settings on record: 25.0 °C.

Take `Nc1nc2c(ncn2[C@@H]2O[C@H](COP(=O)(O)OP(=O)(O)OP(=O)(O)O)[C@@H](OP(=O)(O)OP(=O)(O)O)[C@H]2O)c(=O)[nH]1` [pppGpp, guanosine pentaphosphate]: the IC50 in data set [1] is 9 to 24 µM; in data set [4] it was 9 to 24 µM; in data set [6], roughly 16 µM; in [20], roughly 120 µM; in data set [24], roughly 460 µM; in [29], 9 to 24 µM. The Ki is 16.6 ± 2.4 µM in data set [1]; roughly 11 µM in data set [3]; 7 µM in data set [4]; 81.6 ± 11.8 µM in [5]; 2.9 ± 0.5 µM in data set [9]; 53.5 ± 8.9 µM in data set [11]. Further, the Ki was determined as 42.5 ± 7.3 µM in data set [20]; 12 ± 1.1 µM in data set [29]; 355 ± 26 µM in data set [31]; 1.7 ± 0.5 µM in data set [33]; 1.6 ± 0.4 µM in [37]; 61.5 ± 9.6 µM in [38]. In addition, the Mode of inhibition result in data set [2] is “strongly and competitively inhibited and Comp”; in [7], “competitively inhibited and Comp”; in [8], “Comp”; in [11] it was “modestly and competitively inhibited and Comp”; in data set [14] it was “modestly and competitively inhibited and Comp”; in data set [15], “Comp”. For the same compound, the Mode of inhibition entry in data set [22] was “Comp”; in data set [23], “Comp”; in data set [28], “Comp”; in data set [31], “noncompetitively inhibited; also recorded: Noncomp”; in data set [32], “competitively inhibits and Comp”; in data set [34], “strongly and competitively inhibited and Comp”. The Mode of inhibition entry in [36] is “competitively inhibited and Comp”. Besides, the “Inhibition of GMK activity (sensitivity)” value in [10] is “completely resistant”; in data set [12], “insensitive”; in [16], “more resistant”; in data set [17] it was “completely resistant”; in [18] it was “completely resistant”; in data set [19], “completely resistant”. Besides, the “Inhibition of GMK activity (sensitivity)” value is “resistant” in data set [21], “completely resistant” in [25], “still resistant” in data set [27] and “completely resistant” in [30]. Also, in data set [13], the “Complex formation (binding) by ITC” value is recorded as “detected”. Besides, the “Ki of the variant (in words)” value in data set [26] is recorded as “increased Ki to a level comparable to that of B. anthracis GMK”. The “Binding by ITC” value in [35] was “not observed”.

As to “S. coelicolor GMK (Streptomyces coelicolor A3(2))”, in data set [39], the Km came to 29.7 ± 3.4 µM and the kcat stood at 25.5 ± 0.7 s⁻¹.

Consider “S. mutans GMK (Streptococcus mutans UA159)”, for which, in data set [39], the Km came to 147.4 ± 68.6 µM and the kcat came out at 68.9 ± 24.8 s⁻¹.

On to “S. meliloti GMK (Sinorhizobium meliloti 1021)”, for which, in data set [39], the Km was 14.1 ± 1.3 µM and the kcat was determined as 19.5 ± 0.3 s⁻¹.

For “T. thermophilus GMK (Thermus thermophilus HB8)”, in data set [39], the Km worked out at 17.5 ± 4.1 µM and the kcat is 4.8 ± 0.4 s⁻¹.

As for “C. gilvus GMK (Cellulomonas gilvus ATCC 13127)”, in [39], the Km was found to be 22.5 ± 7.3 µM and the catalytic constant (kcat) was determined as 25 ± 2.7 s⁻¹.

As for `Nc1nc2c(ncn2[C@@H]2O[C@H](COP(=O)(O)OP(=O)(O)O)[C@@H](OP(=O)(O)OP(=O)(O)O)[C@H]2O)c(=O)[nH]1` [ppGpp, guanosine tetraphosphate], the affinity in data set [4] corresponds to a Ki of 8.2 µM. The “Inhibition of GMK activity (sensitivity)” value in data set [19] is “resistant”. Moreover, in [32], the Mode of inhibition result was “competitively inhibits”.

As for “B. subtilis GMK (Bacillus subtilis subsp. subtilis str. 168)”, in [39], the Km stood at 24.6 ± 3.4 µM and the kcat worked out at 23 ± 1 s⁻¹.

“S. aureus GMK (Staphylococcus aureus subsp. aureus N315)”: in data set [39], the Michaelis constant (Km) was 35.1 ± 7.1 µM and the kcat turned out to be 72.9 ± 7.2 s⁻¹.

Consider B. anthracis GMK (Bacillus anthracis), for which, in data set [39], the Km amounted to 78.1 ± 39.7 µM and the kcat amounted to 57.6 ± 21.9 s⁻¹.

Consider “L. monocytogenes GMK (Listeria monocytogenes EGD-e)”, for which, in data set [39], the Km worked out at 84.7 ± 14.2 µM and the kcat stood at 54.9 ± 5.6 s⁻¹.

For “D. radiodurans GMK (Deinococcus radiodurans R1 = ATCC 13939 = DSM 20539)”, in [39], the Km worked out at 17.8 ± 5.4 µM and the kcat stood at 44.5 ± 4.4 s⁻¹.
